The values below come from the Deep4Chem optical property database.

The data set is described as follows: solvent given as SMILES.

For the compound `Cc1cc2c3ccccc3oc2c2[nH]c3ccccc3c12`, for the setting “in ClCCl”, the emission maximum was 353 nm.

`Cc1ccc(C2=C3C=CC4=[N+]3[P-](=O)(=O)n3c2ccc3-c2ccc([nH]2)/C(c2ccc(C)cc2)=c2/cc/c(o2)=C(\c2ccc(C)cc2)c2ccc4[nH]2)cc1` came in with an emission maximum (in ClC(Cl)Cl) of 714 nm.

In the case of `COc1ccc(-c2[nH]c(=O)n3c2-c2ccccc2C3=O)c(OC)c1`, the emission maximum (in CC#N) was 492 nm, the emission maximum (in CO) came out at 507 nm and the emission maximum (in ClCCl) was 488 nm.

Turning to `Cc1cc(-c2ccc(-c3n(C)c4ccccc4[n+]3C)cc2)ccc1-c1ccc(-c2n(C)c3ccccc3[n+]2C)cc1`, the emission maximum (in O) worked out at 399 nm.

`F[B-]1(F)OC(c2ccc(C(F)(F)F)cc2)=Cc2c3ccccc3cc[n+]21` displayed an emission maximum (in ClC(Cl)Cl) of 464.6 nm.

`CCN1\C(=C/C=C/C=C/C2=[N+](CC)c3ccc4ccccc4c3C2(C)C)C(C)(C)c2c1ccc1ccccc21`: the emission maximum runs as follows: (in C1CCOC1) 707 nm; (in CC#N) 695 nm; (in CC(C)=O) 698 nm; (in CCO) 702 nm; (in CN(C)C=O) 702 nm; (in CO) 698 nm. Besides, the emission maximum by setting is: (in CS(C)=O) 705 nm; (in ClCCl) 710 nm.
